Read-outs that look alike come from different tables or passages of the source. A value given as a limit tells only on which side of the number the result lay.

What is called inhibition is the percentage by which the read-out fell short of the control. A word on the melting point: it is the temperature of the solid-liquid transition.

The target in one data set is P110β (Homo sapiens, UniProt P42338). Description: Fluorescent (HTRF) determination of PI3K enzyme activity, β isoform. Format: biochemical. The procedure, abridged: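 Recombinant human PI3K isoforms incubated 10 min at room temperature with inhibitor and 1.38 μM PIP2 (10 mM MgCl2, 5 mM DTT), then 30 min after adding 400 μM ATP stock. PIP3 formation detected by HTRF (665/620 nm); % inhibition versus blank and enzyme controls gives IC50.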

The target of a further data set is P110γ (Homo sapiens, UniProt P48736). Put plainly: Fluorescent (HTRF) determination of PI3K enzyme activity, γ isoform. The data set is classed as biochemical. The text has this:
(§1) Assay 1: Fluorescent determination of PI3Kinase Kinase enzyme activity
(§2) Phosphoinositide 3 kinases (PI3K) belong to a class of lipid kinases that play a critical role in the regulation of several key cellular processes. The PI3K are capable of phosphorylating the 3-hydroxy position of phosphoinositols thereby generating second messengers involved in downstream signalling events. The homogenous time resolved fluorescence (HTRF) assay allows detection of 3,4,5-triphosphate (PIP3) formed as a result of phosphorylation of phosphotidylinositol 4,5-biphosphate (PIP2) by PI3K isoforms such as α, β, γ or δ.
(§3) PI3K isoform activity for α, β, γ or δ was determined using a PI3K human HTRF™ Assay Kit (Millipore, Billerica, Mass.) with modifications. All incubations were carried out at room temperature. Briefly, 0.5 μl of 40× inhibitor (in 100% DMSO) or 100% DMSO were added to each well of a 384-well black plate (Greiner Bio-One, Monroe, N.C.) containing 14.5 μl 1× reaction buffer/PIP2 (10 mM MgCl2, 5 mM DTT, 1.38 μM PIP2) mix with or without enzyme and incubated for 10 min. After the initial incubation, 5 μl/well of 400 μM ATP was added and incubated for an additional 30 minutes. Reaction was terminated by adding 5 μl/well stop solution (Millipore, Billerica, Mass.). Five microliters of detection mix (Millipore, Billerica, Mass.) were then added to each well and was incubated for 6-18 h in the dark. HRTF ratio was measured on a microplate reader (BMG Labtech., Germany) at an excitation wavelength of 337 nm and emission wavelengths of 665 and 620 nm with an integration time of […]. Data were analyzed using Graphpad Prism (Graphpad software; San Diego Calif.) for IC50 determination. Percent inhibition was calculated based on the values for the blank and enzyme controls. The results are provided below in Table 2 & 3.

In another data set the target is P110α (Homo sapiens, UniProt P42336). Put plainly: Fluorescent (HTRF) determination of PI3K enzyme activity, α isoform. Format: biochemical.
Excerpt: as §1, §2, §3

In the next data set the target is P110 δ/Pi3K δ (Homo sapiens, UniProt O00329). Description: Fluorescent (HTRF) determination of PI3K enzyme activity, δ isoform. Format: biochemical. Details: inhibition: dose or concentration left out as unconfirmed. The method, boiled down: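 IC50 fitted from percent inhibition relative to blank and enzyme-only wells. Human PI3Kδ converts PIP2 to PIP3 after addition of 400 μM ATP solution, 30 min at room temperature. Product read by time-resolved FRET after stop and 6–18 h dark incubation with detection reagents.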
On the technique in general: In TR-FRET formats the signal depends on donor and acceptor labels being close together.

Setting [1] is: read-out: P110 δ/Pi3K δ IC 50 nM.
Where [2] appears, read: read-out: P110 δ/ Pi3K δ IC 50 nM.

Sequence of P110β (P42338 whole entry, canonical isoform): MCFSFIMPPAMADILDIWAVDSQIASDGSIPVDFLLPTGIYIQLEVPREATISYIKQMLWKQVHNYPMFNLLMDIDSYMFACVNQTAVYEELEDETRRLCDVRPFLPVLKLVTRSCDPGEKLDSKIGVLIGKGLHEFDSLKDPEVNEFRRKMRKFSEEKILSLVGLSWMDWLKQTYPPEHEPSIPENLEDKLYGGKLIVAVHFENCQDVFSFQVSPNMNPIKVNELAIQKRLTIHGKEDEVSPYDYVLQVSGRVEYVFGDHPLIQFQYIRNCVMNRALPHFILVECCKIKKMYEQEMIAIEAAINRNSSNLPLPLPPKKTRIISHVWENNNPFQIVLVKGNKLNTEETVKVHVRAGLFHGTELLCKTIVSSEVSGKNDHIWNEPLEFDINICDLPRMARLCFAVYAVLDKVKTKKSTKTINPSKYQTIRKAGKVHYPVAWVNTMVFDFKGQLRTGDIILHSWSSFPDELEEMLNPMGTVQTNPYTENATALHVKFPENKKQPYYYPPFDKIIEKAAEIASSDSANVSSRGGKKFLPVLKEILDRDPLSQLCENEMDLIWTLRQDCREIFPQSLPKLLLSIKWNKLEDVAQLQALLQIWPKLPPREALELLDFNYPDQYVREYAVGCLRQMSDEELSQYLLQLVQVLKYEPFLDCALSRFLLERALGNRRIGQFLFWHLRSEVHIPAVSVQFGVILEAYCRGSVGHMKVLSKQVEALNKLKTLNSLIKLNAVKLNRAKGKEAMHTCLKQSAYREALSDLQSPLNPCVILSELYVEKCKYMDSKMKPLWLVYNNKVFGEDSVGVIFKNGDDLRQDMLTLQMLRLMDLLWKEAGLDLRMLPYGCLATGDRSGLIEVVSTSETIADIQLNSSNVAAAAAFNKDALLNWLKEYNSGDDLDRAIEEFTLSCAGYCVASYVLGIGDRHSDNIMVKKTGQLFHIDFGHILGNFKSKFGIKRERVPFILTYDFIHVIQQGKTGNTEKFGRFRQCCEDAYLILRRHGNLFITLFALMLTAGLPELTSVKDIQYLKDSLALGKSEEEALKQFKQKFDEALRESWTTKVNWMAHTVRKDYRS
Sequence of P110β (P27986 whole entry partner, canonical isoform): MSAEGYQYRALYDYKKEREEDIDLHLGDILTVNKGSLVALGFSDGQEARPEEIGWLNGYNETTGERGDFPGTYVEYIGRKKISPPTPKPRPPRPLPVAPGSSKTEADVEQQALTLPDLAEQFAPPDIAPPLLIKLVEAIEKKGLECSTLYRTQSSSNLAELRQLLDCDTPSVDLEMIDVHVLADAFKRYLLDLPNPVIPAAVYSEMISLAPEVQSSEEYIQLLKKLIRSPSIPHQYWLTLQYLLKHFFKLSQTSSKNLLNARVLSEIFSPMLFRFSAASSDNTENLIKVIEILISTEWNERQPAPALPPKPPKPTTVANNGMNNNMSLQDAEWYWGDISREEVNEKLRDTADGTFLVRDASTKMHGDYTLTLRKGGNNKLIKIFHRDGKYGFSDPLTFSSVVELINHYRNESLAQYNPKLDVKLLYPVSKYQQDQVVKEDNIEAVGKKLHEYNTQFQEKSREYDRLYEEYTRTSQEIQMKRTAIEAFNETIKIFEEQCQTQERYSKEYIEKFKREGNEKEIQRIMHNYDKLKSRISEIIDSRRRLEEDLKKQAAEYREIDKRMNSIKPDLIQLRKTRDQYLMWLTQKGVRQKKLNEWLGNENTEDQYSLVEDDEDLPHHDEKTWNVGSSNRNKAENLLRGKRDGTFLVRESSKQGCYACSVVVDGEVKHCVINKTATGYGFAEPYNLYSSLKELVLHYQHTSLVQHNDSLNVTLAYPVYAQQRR
Sequence of P110α (P42336 whole entry, canonical isoform): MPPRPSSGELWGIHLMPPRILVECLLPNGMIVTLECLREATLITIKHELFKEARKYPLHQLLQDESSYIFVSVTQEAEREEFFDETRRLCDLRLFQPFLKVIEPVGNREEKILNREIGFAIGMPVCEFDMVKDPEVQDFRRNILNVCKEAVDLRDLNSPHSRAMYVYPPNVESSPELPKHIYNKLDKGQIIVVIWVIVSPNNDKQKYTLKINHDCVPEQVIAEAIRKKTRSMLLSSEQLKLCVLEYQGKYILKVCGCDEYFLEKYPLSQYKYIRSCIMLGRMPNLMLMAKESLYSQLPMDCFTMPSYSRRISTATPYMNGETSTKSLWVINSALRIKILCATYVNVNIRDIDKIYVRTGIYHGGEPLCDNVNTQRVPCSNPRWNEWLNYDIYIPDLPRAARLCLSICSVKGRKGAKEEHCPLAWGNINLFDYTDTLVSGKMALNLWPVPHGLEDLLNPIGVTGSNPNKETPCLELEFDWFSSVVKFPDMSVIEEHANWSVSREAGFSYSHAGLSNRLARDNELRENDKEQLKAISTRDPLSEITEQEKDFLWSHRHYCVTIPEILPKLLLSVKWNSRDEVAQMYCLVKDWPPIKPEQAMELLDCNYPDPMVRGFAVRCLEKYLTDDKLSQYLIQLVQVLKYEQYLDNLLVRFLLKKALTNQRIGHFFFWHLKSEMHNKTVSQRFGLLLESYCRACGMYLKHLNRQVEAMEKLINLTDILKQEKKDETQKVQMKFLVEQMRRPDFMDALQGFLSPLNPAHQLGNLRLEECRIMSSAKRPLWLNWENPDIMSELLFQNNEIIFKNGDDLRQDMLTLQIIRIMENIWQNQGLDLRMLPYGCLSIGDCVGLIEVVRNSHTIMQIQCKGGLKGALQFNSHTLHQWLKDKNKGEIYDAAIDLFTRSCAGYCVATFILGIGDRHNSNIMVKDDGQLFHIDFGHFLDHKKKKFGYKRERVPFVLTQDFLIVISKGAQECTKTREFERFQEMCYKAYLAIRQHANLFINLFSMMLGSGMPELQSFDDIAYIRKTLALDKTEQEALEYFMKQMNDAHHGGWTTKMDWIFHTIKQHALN
Sequence of P110α (P27986 whole entry partner, canonical isoform): as the sequence (P27986 whole entry partner, canonical isoform) above
Sequence of P110γ (P48736 whole entry, canonical isoform): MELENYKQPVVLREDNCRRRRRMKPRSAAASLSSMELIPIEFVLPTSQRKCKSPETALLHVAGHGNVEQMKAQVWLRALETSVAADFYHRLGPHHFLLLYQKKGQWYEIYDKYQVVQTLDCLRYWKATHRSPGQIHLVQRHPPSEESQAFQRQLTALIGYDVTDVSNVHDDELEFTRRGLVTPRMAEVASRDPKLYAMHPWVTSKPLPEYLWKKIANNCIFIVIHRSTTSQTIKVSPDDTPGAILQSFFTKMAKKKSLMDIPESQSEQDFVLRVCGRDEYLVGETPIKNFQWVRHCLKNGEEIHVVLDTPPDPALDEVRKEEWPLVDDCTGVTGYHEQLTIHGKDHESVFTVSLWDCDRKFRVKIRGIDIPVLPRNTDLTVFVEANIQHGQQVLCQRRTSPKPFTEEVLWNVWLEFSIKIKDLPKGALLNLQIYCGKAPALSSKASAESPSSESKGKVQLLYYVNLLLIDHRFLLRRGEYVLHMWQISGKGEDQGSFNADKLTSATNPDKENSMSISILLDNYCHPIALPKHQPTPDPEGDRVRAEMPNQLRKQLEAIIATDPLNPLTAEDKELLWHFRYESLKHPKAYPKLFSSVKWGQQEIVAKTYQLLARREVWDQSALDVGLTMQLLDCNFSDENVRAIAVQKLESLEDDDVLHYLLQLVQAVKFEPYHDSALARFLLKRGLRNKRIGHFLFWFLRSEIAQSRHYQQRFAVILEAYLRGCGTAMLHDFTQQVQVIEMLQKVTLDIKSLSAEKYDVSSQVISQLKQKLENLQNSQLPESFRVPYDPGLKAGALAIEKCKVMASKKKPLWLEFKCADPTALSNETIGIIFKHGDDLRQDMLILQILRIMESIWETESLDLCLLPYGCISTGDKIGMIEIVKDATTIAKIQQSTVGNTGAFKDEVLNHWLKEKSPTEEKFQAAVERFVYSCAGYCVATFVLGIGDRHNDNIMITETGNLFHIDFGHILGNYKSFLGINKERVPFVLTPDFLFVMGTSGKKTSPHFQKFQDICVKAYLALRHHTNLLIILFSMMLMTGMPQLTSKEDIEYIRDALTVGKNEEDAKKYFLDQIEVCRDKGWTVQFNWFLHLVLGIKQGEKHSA
Sequence of P110 δ/Pi3K δ (O00329 whole entry, canonical isoform): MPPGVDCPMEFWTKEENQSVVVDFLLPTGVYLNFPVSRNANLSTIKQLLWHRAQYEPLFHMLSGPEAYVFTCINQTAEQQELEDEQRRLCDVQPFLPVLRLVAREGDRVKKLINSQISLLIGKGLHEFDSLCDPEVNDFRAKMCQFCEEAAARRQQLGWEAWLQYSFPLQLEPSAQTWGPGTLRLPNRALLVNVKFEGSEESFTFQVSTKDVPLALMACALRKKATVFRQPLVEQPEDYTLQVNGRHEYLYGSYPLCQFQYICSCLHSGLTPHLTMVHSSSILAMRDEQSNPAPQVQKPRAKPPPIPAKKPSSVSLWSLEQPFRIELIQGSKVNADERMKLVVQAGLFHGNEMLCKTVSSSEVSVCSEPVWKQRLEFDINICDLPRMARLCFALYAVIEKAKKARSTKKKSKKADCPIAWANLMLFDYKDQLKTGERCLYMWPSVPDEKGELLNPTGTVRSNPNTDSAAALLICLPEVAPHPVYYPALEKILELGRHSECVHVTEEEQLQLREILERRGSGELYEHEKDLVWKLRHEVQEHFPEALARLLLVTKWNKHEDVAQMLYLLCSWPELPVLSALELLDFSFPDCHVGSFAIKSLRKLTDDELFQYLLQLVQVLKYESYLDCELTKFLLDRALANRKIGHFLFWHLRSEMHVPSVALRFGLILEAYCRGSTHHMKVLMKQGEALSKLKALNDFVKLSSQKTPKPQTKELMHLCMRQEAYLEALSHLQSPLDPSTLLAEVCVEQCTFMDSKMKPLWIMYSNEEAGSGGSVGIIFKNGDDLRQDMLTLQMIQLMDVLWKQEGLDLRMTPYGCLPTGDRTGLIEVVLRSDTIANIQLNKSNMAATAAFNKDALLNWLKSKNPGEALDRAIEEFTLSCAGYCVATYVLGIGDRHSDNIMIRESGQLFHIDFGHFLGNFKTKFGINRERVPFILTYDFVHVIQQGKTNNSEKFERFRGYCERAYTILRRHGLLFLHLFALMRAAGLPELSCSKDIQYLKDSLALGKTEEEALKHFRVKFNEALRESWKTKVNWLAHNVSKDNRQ
Sequence of P110 δ/Pi3K δ (P27986 whole entry partner, canonical isoform): as the sequence (P27986 whole entry partner, canonical isoform) above

For the compound `Cc1c[nH]c2cc(-c3nn(C(C)c4oc5ccccc5c(=O)c4-c4cccc(F)c4)c4ncnc(N)c34)ccc12` (centres unmarked) [Example 111, 2-(1-(4-amino-3-(3-methyl-1H-indol-6-yl)-1H-pyrazolo[3,4-d]pyrimidin-1-yl)ethyl)-3-(3-fluorophenyl)-4H-chromen-4-one], the melting point was 269 to 272 °C. The inhibition at 1 µM on P110β is less than 25%. Further, the inhibition at 1 µM against P110γ is 50 to 100%. On P110α, the inhibition at 1 µM was less than 25%. Also, on P110 δ/Pi3K δ, the inhibition is 50 to 100%.

As for `CC(c1oc2ccccc2c(=O)c1-c1cccc(F)c1)n1cnc2c(N)ncnc21` (centres unmarked) [Example 32, 2-(1-(6-Amino-9H-purin-9-yl)ethyl)-3-(3-fluorophenyl)-4H-chromen-4-one], the inhibition at 1 µM at P110β is less than 25%; against P110γ, less than 25%; on P110α, less than 25%; against P110 δ/Pi3K δ, 50 to 100%. Moreover, on P110 δ/Pi3K δ (setting [1]), the IC50 is less than 250 nM.

Regarding `COc1cccc(-c2nn(C(C)c3oc4ccccc4c(=O)c3-c3cccc(F)c3)c3ncnc(N)c23)c1` (centres unmarked) [Example 51, 2-(1-(4-amino-3-(3-methoxyphenyl)-1H-pyrazolo[3,4-d]pyrimidin-1-yl)ethyl)-3-(3-fluorophenyl)-4H-chromen-4-one], the results for the inhibition at 1 µM at P110β, against P110γ and against P110α were 50 to 100%, less than 25% and less than 25%, respectively.

On to `Nc1ncnc2c1c(-c1cccc(O)c1)nn2Cc1oc2ccccc2c(=O)c1-c1cccc(F)c1` [Example 55, 2-((4-amino-3-(3-hydroxyphenyl)-1H-pyrazolo[3,4-d]pyrimidin-1-yl)methyl)-3-(3-fluorophenyl)-4H-chromen-4-one], for which the melting point lay within 280 to 283 °C. The inhibition at 1 µM on P110β was less than 25%. The same compound showed an inhibition at 1 µM on P110γ of 50 to 100%. In addition, on P110α, the inhibition at 1 µM is less than 25%. The same compound returned an inhibition at 1 µM at P110 δ/Pi3K δ of 50 to 100%. In addition, the IC50 on P110 δ/Pi3K δ (setting [1]) was less than 250 nM.

In turn, `Cc1n[nH]c2cc(-c3nn(C(C)c4oc5ccccc5c(=O)c4-c4cccc(F)c4)c4ncnc(N)c34)ccc12` (centres unmarked) [Example 79, 2-(1-(4-amino-3-(3-methyl-1H-indazol-6-yl)-1H-pyrazolo[3,4-d]pyrimidin-1-yl)ethyl)-3-(3-fluorophenyl)-4H-chromen-4-one] displayed a melting point of 214 to 217 °C. On P110β, this compound had an inhibition at 1 µM of 25 to 50%. On P110γ, this compound came in with an inhibition at 1 µM of 25 to 50%. Moreover, at P110α, the inhibition at 1 µM is less than 25%. Further, the inhibition against P110 δ/Pi3K δ is 50 to 100%. Besides, at P110 δ/Pi3K δ (setting [2]), the IC50 is less than 250 nM.

Compound `Nc1ncnc2c1c(-c1cc(O)cc(F)c1)nn2Cc1oc2ccccc2c(=O)c1-c1cccc(F)c1` [Example 68, 2-((4-amino-3-(3-fluoro-5-hydroxyphenyl)-1H-pyrazolo[3,4-d]pyrimidin-1-yl)methyl)-3-(3-fluorophenyl)-4H-chromen-4-one] yielded a melting point of 235 to 237 °C. The compound also had an inhibition at 1 µM at P110β of 25 to 50%. Also, on P110γ, the inhibition at 1 µM is less than 25%. The same compound returned an inhibition at 1 µM at P110α of less than 25%. Besides, the inhibition at 1 µM against P110 δ/Pi3K δ lay in the range of 50 to 100%. The IC50 on P110 δ/Pi3K δ (setting [1]) was less than 250 nM.

For `CC(c1oc2ccccc2c(=O)c1-c1cccc(F)c1)n1nc(-c2ccc(Oc3ccccc3)cc2)c2c(N)ncnc21` (centres unmarked) [Example 139, 2-(1-(4-amino-3-(4-phenoxyphenyl)-1H-pyrazolo[3,4-d]pyrimidin-1-yl)ethyl)-3-(3-fluorophenyl)-4H-chromen-4-one], the melting point is 218 to 220 °C. On P110β, this compound had an inhibition at 1 µM of 25 to 50%. The compound further returned an inhibition at 1 µM on P110γ of 25 to 50%. The compound also gave an inhibition on P110 δ/Pi3K δ of less than 50%.

In turn, `CC(c1oc2ccccc2c(=O)c1-c1ccccc1)n1nc(-c2cccc(O)c2)c2c(N)ncnc21` (centres unmarked) [Example 42, 2-(1-(4-Amino-3-(3-hydroxyphenyl)-1H-pyrazolo[3,4-d]pyrimidin-1-yl)ethyl)-3-phenyl-4H-chromen-4-one] showed a melting point of 212 to 216 °C. The compound further yielded an inhibition at 1 µM against P110β of 25 to 50%. For the same compound, the inhibition at 1 µM against P110γ was less than 25%. This compound yielded an inhibition at 1 µM at P110α of less than 25%. In addition, the inhibition at 1 µM at P110 δ/Pi3K δ was in the range of 50 to 100%. The IC50 at P110 δ/Pi3K δ (setting [1]) was less than 250 nM.

For `CC(c1oc2ccccc2c(=O)c1-c1cccc(F)c1)n1nc(-c2ccc3c(c2)CCO3)c2c(N)ncnc21` (centres unmarked) [Example 109, 2-(1-(4-amino-3-(2,3-dihydrobenzofuran-5-yl)-1H-pyrazolo[3,4-d]pyrimidin-1-yl)ethyl)-3-(3-fluorophenyl)-4H-chromen-4-one], the melting point was 238 to 241 °C. The inhibition at 1 µM on P110β was less than 25%. The compound also gave an inhibition at 1 µM on P110γ of 25 to 50%. The same compound displayed an inhibition at 1 µM on P110α of less than 25%. For the same compound, the inhibition at P110 δ/Pi3K δ was 50 to 100%.

As to `Nc1ncnc2c1c(-c1cccc(O)c1)nn2Cc1oc2ccccc2c(=O)c1-c1ccccc1` [Example 53, 2-((4-Amino-3-(3-hydroxyphenyl)-1H-pyrazolo[3,4-d]pyrimidin-1-yl)methyl)-3-phenyl-4H-chromen-4-one], the melting point is 154 to 158 °C. For the same compound, on P110β, the inhibition at 1 µM fell in the range of 50 to 100%. The inhibition at 1 µM against P110γ was less than 25%. At P110α, this compound registered an inhibition at 1 µM of less than 25%. At P110 δ/Pi3K δ, this compound had an inhibition at 1 µM of 50 to 100%. In addition, the IC50 at P110 δ/Pi3K δ (setting [1]) is less than 250 nM.

In the case of `Cc1n[nH]c2cc(-c3nn([C@H](C)c4oc5ccccc5c(=O)c4-c4cccc(F)c4)c4ncnc(N)c34)ccc12` (single isomer, unassigned) [Example 128, (+)-2-(1-(4-amino-3-(3-methyl-1H-indazol-6-yl)-1H-pyrazolo[3,4-d]pyrimidin-1-yl)ethyl)-3-(3-fluorophenyl)-4H-chromen-4-one], the inhibition at 1 µM at P110β was less than 25%; against P110γ, 25 to 50%; at P110α, less than 25%. The IC50 at P110 δ/Pi3K δ (setting [2]) was less than 250 nM.

Take `CCOc1ccc(-c2nn(C(C)c3oc4ccccc4c(=O)c3-c3cccc(F)c3)c3ncnc(N)c23)cc1F` (centres unmarked) [Example 143, 2-(1-(4-amino-3-(4-ethoxy-3-fluorophenyl)-1H-pyrazolo[3,4-d]pyrimidin-1-yl)ethyl)-3-(3-fluorophenyl)-4H-chromen-4-one]: the melting point fell in the range of 216 to 218 °C. On P110β, this compound showed an inhibition at 1 µM of 25 to 50%. This compound also showed an inhibition at 1 µM on P110γ of less than 25%. On P110 δ/Pi3K δ, this compound yielded an inhibition of less than 50%.

With `CC(C)Oc1ccc(-c2nn(C(C)c3oc4ccccc4c(=O)c3-c3cccc(F)c3)c3ncnc(N)c23)cc1Cl` (centres unmarked) [Example 141, 2-(1-(4-amino-3-(3-chloro-4-isopropoxyphenyl)-1H-pyrazolo[3,4-d]pyrimidin-1-yl)ethyl)-3-(3-fluorophenyl)-4H-chromen-4-one], the melting point is 198 to 200 °C. Further, on P110β, the inhibition at 1 µM was 25 to 50%. In addition, at P110γ, the inhibition at 1 µM lay in the range of 50 to 100%. Moreover, the inhibition at P110 δ/Pi3K δ lay in the range of 50 to 100%.

In the case of `Cc1n[nH]c2cc(-c3nn(C(C)c4oc5ccc(F)cc5c(=O)c4-c4cccc(F)c4)c4ncnc(N)c34)ccc12` (centres unmarked) [Example 108, 2-(1-(4-amino-3-(3-methyl-1H-indazol-6-yl)-1H-pyrazolo[3,4-d]pyrimidin-1-yl)ethyl)-6-fluoro-3-(3-fluorophenyl)-4H-chromen-4-one], the melting point is 234 to 236 °C. Moreover, the inhibition at 1 µM at P110β fell in the range of 25 to 50%. At P110γ, this compound showed an inhibition at 1 µM of 50 to 100%. Moreover, the inhibition at P110 δ/Pi3K δ fell in the range of 50 to 100%. The IC50 on P110 δ/Pi3K δ (setting [2]) is less than 250 nM.

For `CC(c1oc2ccccc2c(=O)c1-c1cccc(F)c1)n1nc(-c2ccc(OCc3ccccc3)c(Cl)c2)c2c(N)ncnc21` (centres unmarked) [Example 140, 2-(1-(4-amino-3-(4-(benzyloxy)-3-chlorophenyl)-1H-pyrazolo[3,4-d]pyrimidin-1-yl)ethyl)-3-(3-fluorophenyl)-4H-chromen-4-one], the melting point lay in the range of 214 to 216 °C. This compound also returned an inhibition at 1 µM against P110β of 25 to 50%. Besides, the inhibition at 1 µM against P110γ lay in the range of 25 to 50%. Besides, on P110 δ/Pi3K δ, the inhibition is less than 50%.

`Cc1n[nH]c2ccc(-c3nn(C(C)c4oc5ccccc5c(=O)c4-c4cccc(F)c4)c4ncnc(N)c34)cc12` (centres unmarked) [Example 106, 2-(1-(4-amino-3-(3-methyl-1H-indazol-5-yl)-1H-pyrazolo[3,4-d]pyrimidin-1-yl)ethyl)-3-(3-fluorophenyl)-4H-chromen-4-one]: the melting point lay in the range of 254 to 256 °C. On P110β, this compound returned an inhibition at 1 µM of less than 25%. Also, the inhibition at 1 µM on P110γ is 25 to 50%. This compound also came in with an inhibition on P110 δ/Pi3K δ of less than 50%.

(Values after patent US9421209B2, “Kinase modulators” (Rhizen Pharmaceuticals SA, priority 2009, dated 2016).)
